{"source": "patent US12383555B2", "about": "“Methods of treating cancers” (Foghorn Therapeutics Inc., priority 2020, dated 2025)", "key": {"[1]": {"test_system": "OCI-AML2 human AML tumor cells", "test": "Subcutaneous OCI-AML2 tumor growth in vivo", "parameters": "species or system SCID mice", "settings": "1.5 mg/kg daily for 21 days, oral route; tumor carries a DNMT3A mutation", "experimental": "(§1) Method: SCID mice (Charles River, Wilmington) were inoculated subcutaneously on the right flank with the single cell suspension of OCI-AML2 human AML tumor cells (1×10^7) in 100 μL in RPMI-1640 media. When tumor size reach ˜100 mm^3, the mice were randomized into either Vehicle group (20% HP-β-CD) or Treatment group (Compound 20 at 1.5 mg/kg daily for 21 days per oral route). All dose volumes were adjusted by body weights in terms of mg/kg."}, "[2]": {"test": "Tolerability by % body weight change in OCI-AML2 tumor-bearing mice", "format": "in vivo", "settings": "1.5 mg/kg daily for 21 days, oral route", "experimental": "as §1"}, "[3]": {"test_system": "AML cell lines (OCIAML5, KASUMI1)", "test": "Cancer cell line growth inhibition (Cell-titer glo, GI50, day 3 and day 7), compound 18", "format": "cell-based", "settings": "compound 18, 0 to 10 micromolar", "experimental": "Procedure: Uveal melanoma cell lines (92-1, MP41, MP38, MP46), prostate cancer cell lines (LNCAP), lung cancer cell lines (NCIH1299), and immortalized embryonic kidney lines (HEK293T) were plated into 96 well plates with growth media (see Table 1). […] Cells were incubated at 37° C. for 3 days. After 3 days of treatment, the media was removed from the cells, and 30 microliters of TrypLE (Gibco) was added to cells for 10 minutes. Cells were detached from the plates and resuspended with the addition of 170 microliters of growth media. Cells from two DMSO-treated control wells were counted, and the initial number of cells plated at the start of the experiment, were re-plated into fresh-compound containing plates for an additional four days at 37° C. At day 7, cells were harvested as described above.\nOn day 3 and day 7, relative cell growth was measured by the addition of Cell-titer glo (Promega), and luminescence was measured on an Envision plate reader (Perkin Elmer).\nAt the time of cell splitting on days 3 and 7, cells were split into new 96 well plates, and fresh compound was added four hours after re-plating.\nProcedure: All cell lines described above in Example 2 were also tested as described above with compound 18. In addition, the following cell lines were also tested as follows. […]"}, "AML cell lines (OCIAML5)": {"test_system": "AML cell lines (OCIAML5)", "test": "Cancer cell line growth inhibition (Cell-titer glo, GI50, day 3 and day 7), compound 17", "format": "cell-based", "settings": "compound 17, 0 to 10 micromolar"}, "[4]": {"test_system": "MV4;11 human AML tumor cells", "test": "Subcutaneous MV4;11 tumor growth in vivo", "parameters": "species or system BALB/c Nude mice", "settings": "50 mg/kg daily for 21 days, oral route", "experimental": "(§2) Method: BALB/c Nude mice (Beijing Anikeeper Biotech, Beijing) were inoculated subcutaneously on the right flank with the single cell suspension of EOL-1 or MV4;11 human AML tumor cells (1×10^7) in 100 μL IDMD in 10% Fetal Bovine Serum (FBS). When tumor size reach ˜100 mm3, the mice were randomized into either Vehicle group [20% HP-β-CD) or Treatment group: Compound 19 at 50 mg/kg daily for 21 days per oral route. All dose volumes were adjusted by body weights in terms of mg/kg."}, "[5]": {"test_system": "EOL-1 human AML tumor cells", "test": "Subcutaneous EOL-1 tumor growth in vivo", "parameters": "species or system BALB/c Nude mice", "settings": "50 mg/kg daily for 21 days, oral route", "experimental": "as §2"}, "[6]": {"test": "Tolerability by % body weight change in EOL-1 or MV4;11 tumor-bearing mice", "format": "in vivo", "settings": "50 mg/kg daily for 21 days, oral route; MV4;11 and EOL-1 models", "experimental": "as §2"}}}
{"molecule": "COC[C@H](NC(=O)c1ccn(S(C)(=O)=O)c1)C(=O)Nc1nc(-c2cccc(N3C[C@@H](C)O[C@@H](C)C3)n2)cs1", "note": "[Compound 20, N—((S)-1-((4-(6-(cis-2,6-dimethylmorpholino)pyridin-2-yl)thiazol-2-yl)amino)-3-methoxy-1-oxopropan-2-yl)-1-(methylsulfonyl)-1H-pyrrole-3-carboxamide]", "values": [{"measurement": "Effect on OCI-AML2 tumor growth (FIG. 6)", "setting": "[1]", "result": "inhibited the growth"}, {"measurement": "Tolerability based on % body weight change", "setting": "[2]", "result": "well tolerated"}]}
{"molecule": "CSCC[C@H](NC(=O)c1ccn(S(C)(=O)=O)c1)C(=O)Nc1nc(-c2cccc(-c3ccncc3)c2)cs1", "note": "[Compound 18, (S)-1-(methylsulfonyl)-N-(4-(methylthio)-1-oxo-1-((4-(3-(pyridin-4-yl)phenyl)thiazol-2-yl)amino)butan-2-yl)-1H-pyrrole-3-carboxamide]", "values": [{"measurement": "Duration of inhibition of the AML cell lines (FIG. 2)", "setting": "[3]", "result": "maintained through day 7"}, {"measurement": "Sensitivity of the AML cell lines relative to the other tested cell lines (GI50, FIG. 2)", "setting": "[3]; day 3 and day 7", "result": "more sensitive to BRG1/BRM inhibition than the other tested cell lines"}]}
{"molecule": "CSCC[C@H](NC(=O)c1ccc(N)cc1)C(=O)Nc1nc(-c2cccc(-c3ccncc3)c2)cs1", "note": "[Compound 17, 4-amino-N-[(1S)-3-methylsulfanyl-1-[[4-[3-(4-pyridyl)phenyl]thiazol-2-yl]carbamoyl]propyl]benzamide]", "values": [{"measurement": "Duration of inhibition of the AML cell lines (FIG. 1)", "setting": "AML cell lines (OCIAML5)", "result": "maintained through day 7"}]}
{"molecule": "C[C@@H]1CN(c2cccc(-c3csc(NC(=O)CNC(=O)c4ccn(C(C)(C)C)c4)n3)n2)C[C@H](C)O1", "note": "[Compound 19, 1-(tert-butyl)-N-(2-((4-(6-(cis-2,6-dimethylmorpholino)pyridin-2-yl)thiazol-2-yl)amino)-2-oxoethyl)-1H-pyrrole-3-carboxamide]", "values": [{"measurement": "Effect on MV4;11 tumor growth (FIG. 4)", "setting": "[4]", "result": "tumor stasis"}, {"measurement": "Effect on EOL-1 tumor growth (FIG. 5)", "setting": "[5]", "result": "delayed the growth"}, {"measurement": "Tolerability based on % body weight change", "setting": "[6]", "result": "well tolerated"}]}
